Values of other authors in patent publication US8143297B2, “Heterocyclic derivatives as modulators of ion channels” (Vertex Pharmaceuticals Incorporated, priority 2008, dated 2012).

Columns and labels:
Conditions in all cases: read-out: TTX IC50
NaV1.8 = NaV1.8 (Homo sapiens, UniProt Q9Y5Y9)
NaV1.3 = NaV1.3 (Homo sapiens, UniProt Q9NY46)
NaV1.1 = NaV1.1 (Homo sapiens, UniProt P35498)
NaV1.6 = NaV1.6 (Homo sapiens, UniProt Q9UQD0)
NaV1.9 = NaV1.9 (Homo sapiens, UniProt Q9UI33)
NaV1.2 = NaV1.2 (Homo sapiens, UniProt Q99250)

Sequence of NaV1.9 (Q9UI33 whole entry, looked up): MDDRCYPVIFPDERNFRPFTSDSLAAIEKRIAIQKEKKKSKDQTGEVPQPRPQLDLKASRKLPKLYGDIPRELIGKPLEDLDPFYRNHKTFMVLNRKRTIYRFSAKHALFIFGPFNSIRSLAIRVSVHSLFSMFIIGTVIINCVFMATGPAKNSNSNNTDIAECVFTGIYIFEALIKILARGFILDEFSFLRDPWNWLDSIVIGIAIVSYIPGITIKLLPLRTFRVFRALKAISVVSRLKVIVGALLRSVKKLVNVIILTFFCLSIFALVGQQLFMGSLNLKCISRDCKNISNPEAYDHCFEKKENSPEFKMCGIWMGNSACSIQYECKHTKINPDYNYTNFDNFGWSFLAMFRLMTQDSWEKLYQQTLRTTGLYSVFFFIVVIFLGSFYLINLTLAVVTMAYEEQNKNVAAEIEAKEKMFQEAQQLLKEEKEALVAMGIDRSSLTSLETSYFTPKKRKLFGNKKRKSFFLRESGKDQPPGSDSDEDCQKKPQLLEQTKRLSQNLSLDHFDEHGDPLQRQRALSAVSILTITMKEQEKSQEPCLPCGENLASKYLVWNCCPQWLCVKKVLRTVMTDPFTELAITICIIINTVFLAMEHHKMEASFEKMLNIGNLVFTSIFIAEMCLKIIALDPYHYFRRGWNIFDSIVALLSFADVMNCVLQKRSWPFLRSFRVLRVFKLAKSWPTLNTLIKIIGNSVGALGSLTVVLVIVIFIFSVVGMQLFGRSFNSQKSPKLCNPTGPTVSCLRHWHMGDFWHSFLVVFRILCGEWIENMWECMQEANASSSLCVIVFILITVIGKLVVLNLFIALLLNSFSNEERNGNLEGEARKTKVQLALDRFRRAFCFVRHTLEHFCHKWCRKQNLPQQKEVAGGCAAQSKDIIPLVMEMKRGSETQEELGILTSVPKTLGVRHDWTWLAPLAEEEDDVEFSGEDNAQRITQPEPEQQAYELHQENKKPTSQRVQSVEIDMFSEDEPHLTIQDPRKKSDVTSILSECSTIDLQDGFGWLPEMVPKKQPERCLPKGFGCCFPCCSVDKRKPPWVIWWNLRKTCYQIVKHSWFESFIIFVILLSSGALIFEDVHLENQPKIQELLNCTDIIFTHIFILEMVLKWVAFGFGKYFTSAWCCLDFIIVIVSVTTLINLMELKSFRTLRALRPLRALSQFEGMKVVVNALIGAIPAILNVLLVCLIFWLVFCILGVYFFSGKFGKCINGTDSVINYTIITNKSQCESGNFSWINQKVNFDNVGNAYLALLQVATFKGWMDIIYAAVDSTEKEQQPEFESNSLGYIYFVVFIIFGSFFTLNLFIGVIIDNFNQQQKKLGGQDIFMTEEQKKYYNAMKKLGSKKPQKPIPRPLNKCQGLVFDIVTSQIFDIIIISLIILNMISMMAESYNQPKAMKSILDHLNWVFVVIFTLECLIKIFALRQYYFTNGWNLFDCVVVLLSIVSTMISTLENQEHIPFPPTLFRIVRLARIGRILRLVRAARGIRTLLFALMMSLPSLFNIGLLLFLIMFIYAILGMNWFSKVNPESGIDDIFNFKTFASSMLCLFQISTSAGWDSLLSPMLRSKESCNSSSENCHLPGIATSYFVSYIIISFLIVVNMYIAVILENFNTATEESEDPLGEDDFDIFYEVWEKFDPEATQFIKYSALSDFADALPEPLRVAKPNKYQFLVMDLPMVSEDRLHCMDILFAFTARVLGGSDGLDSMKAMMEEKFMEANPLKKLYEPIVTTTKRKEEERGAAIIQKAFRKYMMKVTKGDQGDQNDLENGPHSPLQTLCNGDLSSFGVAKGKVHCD
Sequence of NaV1.6 (Q9UQD0 whole entry, looked up): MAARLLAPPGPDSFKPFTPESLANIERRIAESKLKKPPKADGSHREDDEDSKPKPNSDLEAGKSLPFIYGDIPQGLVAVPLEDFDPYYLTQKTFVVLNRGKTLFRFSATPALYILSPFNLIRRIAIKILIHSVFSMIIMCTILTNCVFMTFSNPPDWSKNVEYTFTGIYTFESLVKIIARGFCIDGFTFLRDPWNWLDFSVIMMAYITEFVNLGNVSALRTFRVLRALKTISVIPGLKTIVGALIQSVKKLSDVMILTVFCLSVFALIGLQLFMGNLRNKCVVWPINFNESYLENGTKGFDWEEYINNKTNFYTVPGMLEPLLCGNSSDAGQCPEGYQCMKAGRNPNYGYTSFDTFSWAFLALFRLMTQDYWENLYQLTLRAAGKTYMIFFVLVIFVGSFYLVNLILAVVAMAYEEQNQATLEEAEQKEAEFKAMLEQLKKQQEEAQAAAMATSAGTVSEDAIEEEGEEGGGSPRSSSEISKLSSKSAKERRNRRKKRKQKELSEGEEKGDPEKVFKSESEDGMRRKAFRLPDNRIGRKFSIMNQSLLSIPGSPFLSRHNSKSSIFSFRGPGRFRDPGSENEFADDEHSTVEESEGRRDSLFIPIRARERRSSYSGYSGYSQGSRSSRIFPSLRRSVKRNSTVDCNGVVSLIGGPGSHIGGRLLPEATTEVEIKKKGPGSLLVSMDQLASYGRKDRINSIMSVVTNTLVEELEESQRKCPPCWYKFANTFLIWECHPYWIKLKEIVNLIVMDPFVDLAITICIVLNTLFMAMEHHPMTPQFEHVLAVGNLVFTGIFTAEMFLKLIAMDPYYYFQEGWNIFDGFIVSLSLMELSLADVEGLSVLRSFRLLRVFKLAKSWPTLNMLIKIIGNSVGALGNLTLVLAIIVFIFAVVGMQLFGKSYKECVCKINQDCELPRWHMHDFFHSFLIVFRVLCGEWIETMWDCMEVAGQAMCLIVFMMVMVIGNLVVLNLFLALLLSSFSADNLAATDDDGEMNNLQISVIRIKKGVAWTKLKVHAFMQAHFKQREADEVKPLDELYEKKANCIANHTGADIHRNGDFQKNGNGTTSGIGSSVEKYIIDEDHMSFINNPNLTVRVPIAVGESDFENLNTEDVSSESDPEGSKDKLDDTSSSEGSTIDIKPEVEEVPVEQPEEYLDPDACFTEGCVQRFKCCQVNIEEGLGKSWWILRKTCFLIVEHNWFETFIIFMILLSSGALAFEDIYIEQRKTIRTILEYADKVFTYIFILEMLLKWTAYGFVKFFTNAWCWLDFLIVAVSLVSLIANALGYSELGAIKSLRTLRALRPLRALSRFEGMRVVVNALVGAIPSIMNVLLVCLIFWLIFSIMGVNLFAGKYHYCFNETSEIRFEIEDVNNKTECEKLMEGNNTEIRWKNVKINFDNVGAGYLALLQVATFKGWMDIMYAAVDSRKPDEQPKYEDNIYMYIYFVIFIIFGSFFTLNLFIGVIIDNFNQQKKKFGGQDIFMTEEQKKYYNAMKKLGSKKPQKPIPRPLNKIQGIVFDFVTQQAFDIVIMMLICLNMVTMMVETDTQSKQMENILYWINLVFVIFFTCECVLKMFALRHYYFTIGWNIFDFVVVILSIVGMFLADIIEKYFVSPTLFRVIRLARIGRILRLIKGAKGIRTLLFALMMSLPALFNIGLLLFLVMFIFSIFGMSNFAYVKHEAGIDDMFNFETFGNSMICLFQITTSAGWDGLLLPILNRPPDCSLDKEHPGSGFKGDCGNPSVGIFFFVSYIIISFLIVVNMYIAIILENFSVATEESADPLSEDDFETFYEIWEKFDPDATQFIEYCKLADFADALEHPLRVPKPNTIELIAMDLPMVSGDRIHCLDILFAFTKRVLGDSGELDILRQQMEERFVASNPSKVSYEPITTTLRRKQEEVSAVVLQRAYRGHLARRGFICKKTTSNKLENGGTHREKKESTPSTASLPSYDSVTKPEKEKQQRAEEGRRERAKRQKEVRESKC

In the case of `NC1=N[C@H](O)[C@H]2[C@H]3O[C@]4(O)O[C@@H]([C@@H](O)[C@@]2(N1)[C@@H]4O)[C@]3(O)CO` [TTX, tetrodotoxin], the IC50 (NaV1.8) is given as > 50000 nM, the IC50 (NaV1.3) is given as 15 nM and the IC50 (NaV1.1) is given as 10 nM. The IC50 (NaV1.6) was 6 nM, the IC50 (NaV1.9) was 1000 nM and the IC50 (NaV1.2) was 10 nM.
